Assay results: PubChem BioAssay (NCI)
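Following 48 hours of exposure in 96-well plates, responses at five concentrations were used to interpolate endpoints linearly. TGI: total growth inhibition.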

Tests used:
Assay in all cases: NCI tumour cell line growth inhibition, 48 h
CCRF-CEM leukemia = test system: CCRF-CEM leukemia
PC-3 prostate = test system: PC-3 prostate
SK-MEL-5 melanoma = test system: SK-MEL-5 melanoma
IGROV1 ovarian = test system: IGROV1 ovarian
NCI-H522 lung = test system: NCI-H522 lung
SF-268 CNS = test system: SF-268 CNS
A549 NSCLC = test system: A549 NSCLC
U251 CNS = test system: U251 CNS
MDA-N = test system: MDA-N
HCC-2998 colon = test system: HCC-2998 colon
RPMI-8226 leukemia = test system: RPMI-8226 leukemia
OVCAR-3 ovarian = test system: OVCAR-3 ovarian
MDA-MB-435 = test system: MDA-MB-435
COLO 205 colon = test system: COLO 205 colon
K-562 leukemia = test system: K-562 leukemia
NCI-H460 lung = test system: NCI-H460 lung
UO-31 renal = test system: UO-31 renal
NCI-H226 lung = test system: NCI-H226 lung
UACC-257 melanoma = test system: UACC-257 melanoma
RXF 393 renal = test system: RXF 393 renal
HOP-92 NSCLC = test system: HOP-92 NSCLC
SF-295 CNS = test system: SF-295 CNS
DU-145 prostate = test system: DU-145 prostate
NCI/ADR-RES ovarian = test system: NCI/ADR-RES ovarian
HCT-15 colon = test system: HCT-15 colon
ACHN renal = test system: ACHN renal
MALME-3M melanoma = test system: MALME-3M melanoma
HCT-116 colon = test system: HCT-116 colon
MDA-MB-231 breast = test system: MDA-MB-231 breast
SR leukemia = test system: SR leukemia
EKVX NSCLC = test system: EKVX NSCLC
MCF7 breast = test system: MCF7 breast
786-0 renal = test system: 786-0 renal
M14 melanoma = test system: M14 melanoma
CAKI-1 renal = test system: CAKI-1 renal
SK-MEL-2 melanoma = test system: SK-MEL-2 melanoma
T-47D breast = test system: T-47D breast
HL-60(TB) leukemia = test system: HL-60(TB) leukemia
OVCAR-4 ovarian = test system: OVCAR-4 ovarian
SNB-19 CNS = test system: SNB-19 CNS
OVCAR-5 ovarian = test system: OVCAR-5 ovarian
SW-620 colon = test system: SW-620 colon
KM12 colon = test system: KM12 colon
HOP-62 NSCLC = test system: HOP-62 NSCLC
SK-OV-3 ovarian = test system: SK-OV-3 ovarian
LOX IMVI melanoma = test system: LOX IMVI melanoma
SN12C renal = test system: SN12C renal
OVCAR-8 ovarian = test system: OVCAR-8 ovarian
TK-10 renal = test system: TK-10 renal
A498 renal = test system: A498 renal
HT29 colon = test system: HT29 colon
SF-539 CNS = test system: SF-539 CNS
HS 578T breast = test system: HS 578T breast
SK-MEL-28 melanoma = test system: SK-MEL-28 melanoma
SNB-75 CNS = test system: SNB-75 CNS
MOLT-4 leukemia = test system: MOLT-4 leukemia
NCI-H23 lung = test system: NCI-H23 lung

Compound: COc1c(C)c2nc3ccccc3[nH]c2c2c(=O)ccnc12
- TGI (CCRF-CEM leukemia): > 100 µM
- TGI (PC-3 prostate): > 100 µM
- TGI (SK-MEL-5 melanoma): > 100 µM
- TGI (IGROV1 ovarian): > 100 µM
- TGI (NCI-H522 lung): > 100 µM
- TGI (SF-268 CNS): > 100 µM
- TGI (A549 NSCLC): > 100 µM
- TGI (U251 CNS): > 100 µM
- TGI (MDA-N): > 100 µM
- TGI (HCC-2998 colon): > 100 µM
- TGI (RPMI-8226 leukemia): > 100 µM
- TGI (OVCAR-3 ovarian): > 100 µM
- TGI (MDA-MB-435): > 100 µM
- TGI (COLO 205 colon): > 100 µM
- TGI (K-562 leukemia): > 100 µM
- TGI (NCI-H460 lung): > 100 µM
- TGI (UO-31 renal): > 100 µM
- TGI (NCI-H226 lung): > 100 µM
- TGI (UACC-257 melanoma): > 100 µM
- TGI (RXF 393 renal): 71.7 µM
- TGI (HOP-92 NSCLC): > 100 µM
- TGI (SF-295 CNS): > 100 µM
- TGI (DU-145 prostate): > 100 µM
- TGI (NCI/ADR-RES ovarian): > 100 µM
- TGI (HCT-15 colon): > 100 µM
- TGI (ACHN renal): > 100 µM
- TGI (MALME-3M melanoma): > 100 µM
- TGI (HCT-116 colon): > 100 µM
- TGI (MDA-MB-231 breast): > 100 µM
- TGI (SR leukemia): > 100 µM
- TGI (EKVX NSCLC): > 100 µM
- TGI (MCF7 breast): > 100 µM
- TGI (786-0 renal): > 100 µM
- TGI (M14 melanoma): > 100 µM
- TGI (CAKI-1 renal): > 100 µM
- TGI (SK-MEL-2 melanoma): > 100 µM
- TGI (T-47D breast): > 100 µM
- TGI (HL-60(TB) leukemia): > 100 µM
- TGI (OVCAR-4 ovarian): > 100 µM
- TGI (SNB-19 CNS): > 100 µM
- TGI (OVCAR-5 ovarian): > 100 µM
- TGI (SW-620 colon): > 100 µM
- TGI (KM12 colon): > 100 µM
- TGI (HOP-62 NSCLC): > 100 µM
- TGI (SK-OV-3 ovarian): > 100 µM
- TGI (LOX IMVI melanoma): > 100 µM
- TGI (SN12C renal): > 100 µM
- TGI (OVCAR-8 ovarian): > 100 µM
- TGI (TK-10 renal): > 100 µM
- TGI (A498 renal): > 100 µM
- TGI (HT29 colon): > 100 µM
- TGI (SF-539 CNS): > 100 µM
- TGI (HS 578T breast): 78.7 µM
- TGI (SK-MEL-28 melanoma): > 100 µM
- TGI (SNB-75 CNS): 35.1 µM
- TGI (MOLT-4 leukemia): > 100 µM
- TGI (NCI-H23 lung): > 100 µM
